The values below come from article PMC6684055 (Toxicology letters, 2019).

Where “and” joins values, the source holds several entries; their conditions need not be identical. Identical values can stand only once. Entries after “also recorded” stand apart in the source; their conditions may differ.

Data set [1] relates to CYP1A1 and CYP1A2. Nature of the data set: Expression of CYP1A1 and CYP1A2 mRNAs. It is filed as cell-based, human. The settings on record: three donors, 24 h, MMI 200 μM, TCDD 5 nM.
Data set [2] is described as follows: Residual MMI in culture media after incubation with primary human hepatocytes. The data set is classed as in vitro ADME. The settings on record: 24 h incubation with human hepatocytes, initial 200 μM.
Data set [3] concerns CYP1A genes. The data set is described as follows: Induction of CYP1A genes. The settings on record: 5 F-HepaRG cells, 24 h, MMI 200 μM; for efficacy of CYP1A genes induction relative to TCDD (100%): TCDD 5 nM.
The test system of data set [4] is CYP1A1. Nature of the data set: Induction of CYP1A1 catalytic activity in primary human hepatocytes. It is filed as cell-based. The settings on record: 24 h; for induction of CYP1A1 activity, concentration-response profile (in words): then luciferin-CEE 3 h.
For data set [5], the system named is CYP1A1. The data set is described as follows: Induction of CYP1A1 catalytic activity in LS180 cells. The settings on record: 24 h, inverse U-shape profile. The data set is classed as cell-based, human.
Data set [6] has as its system human AhR. The settings on record: cited from earlier work.
The test system of data set [7] is CYP1A1. The data set is described as follows: Single concentration inactivation assay. The data set is classed as biochemical. The settings on record: human, human liver microsomes, probe Luciferin-CEE. On the technique in general: Liver microsomes are a subcellular fraction often used to study metabolism.
Data set [8] addresses T1, AhR (Homo sapiens, UniProt P35869).
T1 sequence (P35869 11-848): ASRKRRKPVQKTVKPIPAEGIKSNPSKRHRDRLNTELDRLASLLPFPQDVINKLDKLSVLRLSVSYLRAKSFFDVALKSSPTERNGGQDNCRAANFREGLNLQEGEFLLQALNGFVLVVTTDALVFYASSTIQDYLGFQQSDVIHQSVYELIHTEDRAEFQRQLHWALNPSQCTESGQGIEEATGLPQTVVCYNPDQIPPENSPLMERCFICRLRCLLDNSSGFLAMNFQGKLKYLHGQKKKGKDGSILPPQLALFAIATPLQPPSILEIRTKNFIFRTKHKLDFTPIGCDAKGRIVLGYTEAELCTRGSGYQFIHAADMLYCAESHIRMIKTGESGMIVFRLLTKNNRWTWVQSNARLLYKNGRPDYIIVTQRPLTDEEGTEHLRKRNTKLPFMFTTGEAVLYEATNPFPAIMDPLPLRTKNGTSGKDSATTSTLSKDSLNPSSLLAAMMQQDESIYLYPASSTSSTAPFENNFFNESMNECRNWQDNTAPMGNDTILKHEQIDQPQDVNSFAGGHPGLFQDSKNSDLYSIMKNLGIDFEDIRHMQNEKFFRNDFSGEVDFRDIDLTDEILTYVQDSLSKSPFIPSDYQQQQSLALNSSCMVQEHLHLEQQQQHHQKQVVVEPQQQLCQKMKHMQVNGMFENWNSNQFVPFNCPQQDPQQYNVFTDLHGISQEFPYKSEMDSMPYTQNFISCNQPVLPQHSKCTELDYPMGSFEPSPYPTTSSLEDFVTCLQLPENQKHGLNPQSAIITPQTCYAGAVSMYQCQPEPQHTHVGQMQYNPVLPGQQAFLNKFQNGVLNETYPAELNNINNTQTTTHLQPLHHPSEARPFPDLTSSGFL
It is filed as cell-based. The settings on record: AZ-AHR cells, without incubation with hepatocytes.

Data set [9] deals with CYP1A1. The settings on record: ref Stepankova et al., 2018; cited from earlier work.
Data set [10] concerns CYP1A2 mRNA. Nature of the data set: CYP1A2 mRNA expression. It is filed as cell-based, human. The settings on record: 5 F-HepaRG cells, 24 h, TCDD 5 nM, two consecutive passages.
[11] abbreviates: human hepatocytes, MMI 0.1-200 μM.

For the compound `Cn1ccc2ccccc21` [1-methylindole], the “induction of CYP1A1 and CYP1A2 mRNAs and proteins in primary human hepatocytes (in words)” value in data set [1] is given as “Modest induction”. For the same compound, the “residual MMI in culture media (in words)” value in data set [2] is listed as “no residual MMI was detected”. In data set [3], the “efficacy of CYP1A genes induction relative to TCDD (100%)” value came to 15%.
In the case of `Cc1cc2ccccc2[nH]1` [2-methylindole], the “induction of CYP1A1 and CYP1A2 mRNAs and proteins in primary human hepatocytes (in words)” value in data set [1] was “no effect”. For the same compound, the “induction of CYP1A1 activity, concentration-response profile (in words)” value (shortened to “induction of CYP1A1 activity”) in [4] (setting [11]) was “No induction”. The “concentration at peak of CYP1A1 induction” value (“concentration at peak” below) in data set [5] is 25 µM. The “activity at AhR (in words)” value in [6] (ref Stepankova et al., 2018) is “nearly inactive”. The “CYP1A induction in HepaRG cells (in words)” value in [3] was “nearly inactive”.
Regarding `Cc1c[nH]c2ccccc12` [3-methylindole], the “induction of CYP1A1 and CYP1A2 mRNAs and proteins in primary human hepatocytes (in words)” value in data set [1] is “Modest induction”. Moreover, in [4] (setting [11]), the “induction of CYP1A1 activity” value is “No induction”. In addition, the “activity at human AhR (in words)” value in data set [6] (ref Rasmussen et al., 2016) is reported as “partial agonist”.
Usually inhibition stands for how much of the control response was suppressed. A high value points to a response far below the control. For the compound `Cc1cccc2[nH]ccc12` [4-methylindole], the “induction of CYP1A1 activity” value in data set [4] (setting [11]) was “Inverse U-shaped”. Moreover, in data set [5], the “concentration at peak” value came to 25 µM. For the same compound, the inhibition at 30 min, 200 μM in data set [7] came out at 10%. Further, the “efficacy as AhR agonist compared to 3-methylindole (skatole)” value in [6] (ref Stepankova et al., 2018) is recorded as “approx. 25 times”. Besides, the “efficacy of CYP1A genes induction relative to TCDD (100%)” value in data set [3] was ~100%.
Consider `Cc1ccc2[nH]ccc2c1` [5-methylindole], for which the “induction of CYP1A1 activity” value in data set [4] (setting [11]) is listed as “Inverse U-shaped”. Also, the inhibition at 30 min, 200 μM in data set [7] worked out at 47%. Further, the “efficacy of CYP1A genes induction relative to TCDD (100%)” value in [3] was ~ 20%.
On to `Cc1ccc2cc[nH]c2c1` [6-methylindole], for which, in [4] (setting [11]), the “induction of CYP1A1 activity” value is “Inverse U-shaped”. Moreover, the “concentration at peak” value in [5] is 25 µM. Also, the “efficacy as AhR agonist compared to 3-methylindole (skatole)” value in data set [6] (ref Stepankova et al., 2018) was “approx. 25 times”.
For `Cc1cccc2cc[nH]c12` [7-methylindole], in data set [1], the “induction of CYP1A1 and CYP1A2 mRNAs and proteins in primary human hepatocytes (in words)” value was “strong inducer; also recorded: very strong inducer”. Besides, in data set [4] (setting [11]), the “relative efficacy of CYP1A1 activity induction as compared to TCDD” value is reported as ~ 2% and the “induction of CYP1A1 activity” value was “Concentration-dependent induction”. For the same compound, in data set [8], the “AhR agonist activity of parental compound (in words)” value was “weak agonist of AhR”. Besides, in data set [9], the “CYP1A induction in LS180 intestinal cells (in words)” value is on record as “modest CYP1A inducer; also recorded: weak inducer”. For the same compound, in data set [3], the “CYP1A induction in HepaRG cells (in words)” value is recorded as “modest CYP1A inducer” and the “efficacy of CYP1A genes induction relative to TCDD (100%)” value is ~ 20%.
For the compound `Clc1cc2c(cc1Cl)Oc1cc(Cl)c(Cl)cc1O2` [TCDD, 2,3,7,8-tetrachlorodibenzo-p-dioxin, reference compound], in data set [10], the “induction of CYP1A2 mRNA” value was 34 fold and 50 fold. Further, the “induction of CYP1A1 and CYP1A2 mRNAs and proteins in primary human hepatocytes (in words)” value in data set [1] is “strongly induced”. The “induction of CYP1A1 enzyme activity” value in [4] (human hepatocytes culture Hep200571, TCDD 5 nM) was 11 fold; in data set [4] (human hepatocytes culture Hep220993, TCDD 5 nM), 153 fold.
